According to BindingDB's records for doi:10.3109/14756366.2013.765415 (Universidad de la República, 2014):

Key:
[1] = biological target: Triosephosphate isomerase (Homo sapiens, UniProt P60174); assay: Inhibition Assay; conditions: pH 7.4; 37 °C
Procedure: (§1) The reaction mixture (1 mL, pH 7.4) contained 100mM triethanolamine, 10mM EDTA, 0.2mM NADH, 1mM glyceraldehyde 3-phosphate (GAP) and 0.9 units of α-glycerol phosphate dehydrogenase (α-GPDH). The reaction was initiated by addition of 5 ng/mL of the corresponding TIM or the corresponding TIM pre-incubated with the studied compounds. In these cases, inhibition assays, the enzymes were pre-incubated for 2 h at 37 °C with the studied compounds.

[2] = biological target: Triosephosphate isomerase, glycosomal (Trypanosoma brucei brucei, UniProt P04789); assay: Inhibition Assay; conditions: pH 7.4; 37 °C
Procedure: as §1

Sequence of Triosephosphate isomerase, glycosomal (P04789 whole entry): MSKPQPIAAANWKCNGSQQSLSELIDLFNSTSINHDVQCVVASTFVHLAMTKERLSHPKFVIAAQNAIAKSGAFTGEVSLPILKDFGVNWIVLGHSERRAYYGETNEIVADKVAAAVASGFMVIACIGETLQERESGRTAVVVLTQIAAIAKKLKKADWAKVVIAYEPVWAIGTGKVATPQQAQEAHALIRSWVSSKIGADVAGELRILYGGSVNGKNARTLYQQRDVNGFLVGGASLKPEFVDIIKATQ

IC50 [1] [µM] | IC50 [2] [µM] | Compound
> 100 |  | Oc1ccc2nc3cc(Cl)c(Cl)cc3nc2c1 [TIM inhibitor, 2]
100 |  | Cc1ccc(-c2nsc(=O)[nH]2)cc1 [TIM inhibitor, 1]
> 100 | 34 | O=C1C(=Cc2ccc([N+](=O)[O-])o2)C(=O)N(Cc2ccccc2)SN1Cc1ccccc1 [TIM inhibitor, 3]
